According to article PMC9604400, “Synthesis, Anticancer and Antitubercular Properties of New Chalcones and Their Nitrogen-Containing Five-Membered Heterocyclic Hybrids Bearing Sulfonamide Moiety” (International Journal of Molecular Sciences, 2022):
Several values for one entry are separate records, joined by “and”; a condition that tells them apart may be missing. Identical values can stand only once.

Legend:
DU-145 = assay: NCI-60 screen (SRB), prostate cancer; conditions: Homo sapiens
SW-620 = assay: NCI-60 screen (SRB), colon cancer; conditions: Homo sapiens
OVCAR-5 = assay: NCI-60 screen (SRB), ovarian cancer; conditions: Homo sapiens
UO-31 = assay: NCI-60 screen (SRB), renal cancer
SR = assay: NCI-60 screen (SRB), leukemia; conditions: Homo sapiens
K-562 = assay: NCI-60 screen (SRB), leukemia; conditions: Homo sapiens
UACC-62 = assay: NCI-60 screen (SRB), melanoma; conditions: Homo sapiens
HL-60(TB) = assay: cells; conditions: Homo sapiens
U251 = assay: NCI-60 screen (SRB), CNS cancer; conditions: Homo sapiens
T-47D = assay: NCI-60 screen (SRB), breast cancer; conditions: Homo sapiens, T47D
SK-MEL-28 = assay: NCI-60 screen (SRB), melanoma; conditions: Homo sapiens
HT29 = assay: NCI-60 screen (SRB), colon cancer; conditions: Homo sapiens
MOLT-4 = assay: NCI-60 screen (SRB), leukemia; conditions: Homo sapiens
SF-268 = assay: NCI-60 screen (SRB), CNS cancer; conditions: Homo sapiens
RPMI-8226 = assay: NCI-60 screen (SRB), leukemia; conditions: Homo sapiens
[1] = test system: 60 human cancer cell lines; assay: NCI-60 screen (SRB), whole panel; assay type: cell-based; conditions: single dose 10 μM, mean over 60 cell lines
HCC-2998 = assay: NCI-60 screen (SRB), colon cancer
OVCAR-8 = assay: NCI-60 screen (SRB), ovarian cancer; conditions: Homo sapiens
SF-539 = assay: NCI-60 screen (SRB), CNS cancer; conditions: Homo sapiens
KM12 = assay: NCI-60 screen (SRB), colon cancer; conditions: Homo sapiens
A549/ATCC = assay: NCI-60 screen (SRB), non-small cell lung cancer; conditions: Homo sapiens
MDA-MB-435 = assay: NCI-60 screen (SRB), melanoma; conditions: Homo sapiens
LOX IMVI = assay: NCI-60 screen (SRB), melanoma
SK-OV-3 = assay: NCI-60 screen (SRB), ovarian cancer; conditions: Homo sapiens
CAKI-1 = assay: NCI-60 screen (SRB), renal cancer; conditions: Homo sapiens
IGROV1 = assay: NCI-60 screen (SRB), ovarian cancer; conditions: Homo sapiens
TK-10 = assay: NCI-60 screen (SRB), renal cancer; conditions: Homo sapiens
leukemia cell lines = assay: NCI-60 screen (SRB), leukemia panel; assay type: cell-based; conditions: Homo sapiens, read-out: IC50 (GI50), range over leukemia panel
SN12C = assay: NCI-60 screen (SRB), renal cancer; conditions: Homo sapiens
OVCAR-4 = assay: NCI-60 screen (SRB), ovarian cancer; conditions: Homo sapiens
HCT-15 = assay: NCI-60 screen (SRB), colon cancer; conditions: Homo sapiens
HS 578T = assay: NCI-60 screen (SRB), breast cancer

In the case of COc1cc(OC)c(S(=O)(=O)N(CCCl)CCCl)cc1C(=O)/C=C/c1cc(OC)c(OC)c(OC)c1 [Compound 18e, (E)-N,N-bis(2-Chloroethyl)-2,4-dimethoxy-5-(3-(3,4,5-trimethoxyphenyl)acryloyl)benzenesulfonamide], the IC50 (DU-145; DU-145) is reported as 14.8 µM, the CC50 (DU-145; DU-145, read-out: LC50) is reported as > 100 µM and the IC50 (SW-620; SW-620) is reported as 25.1 µM. For the same molecule, the CC50 (SW-620; SW-620, read-out: LC50) was > 100 µM, the IC50 (OVCAR-5; OVCAR-5) was 6.8 µM and the CC50 (OVCAR-5; OVCAR-5, read-out: LC50) was > 100 µM. The IC50 (UO-31; Homo sapiens, UO-31) was 2.92 µM, the CC50 (UO-31; Homo sapiens, UO-31, read-out: LC50) was 5.51 µM and the lethality (UO-31; UO-31, single dose 10 μM) was 93.86%. For the same molecule, the IC50 (SR) was 0.99 µM, the CC50 (SR; read-out: LC50) was > 100 µM and the IC50 (K-562; K562) was 1.3 µM. The CC50 (K-562; K562, read-out: LC50) was > 100 µM, the IC50 (UACC-62; UACC-62) was 4.94 µM and the CC50 (UACC-62; UACC-62, read-out: LC50) was > 100 µM. The IC50 (HL-60(TB); HL-60) was 1.6 µM, the CC50 (HL-60(TB); HL-60, read-out: LC50) was > 100 µM and the IC50 (U251; U-251) was 3.68 µM. The CC50 (U251; U-251, read-out: LC50) was 7.61 µM, the IC50 (T-47D) was > 100 µM and the CC50 (T-47D; read-out: LC50) was > 100 µM. The IC50 (SK-MEL-28; SK-MEL-28) was 3.54 µM, the CC50 (SK-MEL-28; SK-MEL-28, read-out: LC50) was 6.88 µM and the IC50 (HT29; HT-29) was 5.92 µM. The CC50 (HT29; HT-29, read-out: LC50) was > 100 µM, the IC50 (MOLT-4; MOLT-4) was 2.04 µM and the CC50 (MOLT-4; MOLT-4, read-out: LC50) was > 100 µM. For the same molecule, the IC50 (SF-268; SF-268) was 7.7 µM, the CC50 (SF-268; SF-268, read-out: LC50) was > 100 µM and the IC50 (RPMI-8226; RPMI-8226) was 2.52 µM. For the same molecule, the CC50 (RPMI-8226; RPMI-8226, read-out: LC50) was > 100 µM, the mean lethality [1] was 25.48% and the “Mean growth inhibition (GI) percentage” value ([1]; over 100% = cell death) was 100.00% and 125.48%. The lethality (HCC-2998; HCC-2998, single dose 10 μM) was 91.08%, the IC50 (HCC-2998; Homo sapiens, HCC 2998) was 3.54 µM and the CC50 (HCC-2998; Homo sapiens, HCC 2998, read-out: LC50) was 6.35 µM. The IC50 (OVCAR-8; OVCAR-8) was > 100 µM, the CC50 (OVCAR-8; OVCAR-8, read-out: LC50) was > 100 µM and the IC50 (SF-539; SF-539) was 3.61 µM. The CC50 (SF-539; SF-539, read-out: LC50) was 7.51 µM, the IC50 (KM12; KM12) was 4.25 µM and the CC50 (KM12; KM12, read-out: LC50) was 9.4 µM. For the same molecule, the IC50 (A549/ATCC; A549) was 3.11 µM, the CC50 (A549/ATCC; A549, read-out: LC50) was > 100 µM and the IC50 (MDA-MB-435; MDA-MB-435) was 7.51 µM. For the same molecule, the CC50 (MDA-MB-435; MDA-MB-435, read-out: LC50) was > 100 µM, the IC50 (LOX IMVI; Homo sapiens) was 2.89 µM and the CC50 (LOX IMVI; Homo sapiens, read-out: LC50) was 5.79 µM. The lethality (LOX IMVI; single dose 10 μM) was 84.53%, the IC50 (SK-OV-3; SK-OV-3) was 13 µM and the CC50 (SK-OV-3; SK-OV-3, read-out: LC50) was > 100 µM. The IC50 (CAKI-1; CAKI-1) was > 100 µM, the CC50 (CAKI-1; CAKI-1, read-out: LC50) was > 100 µM and the IC50 (IGROV1; IGROV-1) was 9.05 µM. The CC50 (IGROV1; IGROV-1, read-out: LC50) was > 100 µM, the IC50 (TK-10; TK-10) was 75 µM and the CC50 (TK-10; TK-10, read-out: LC50) was > 100 µM. The IC50 (leukemia cell lines) was 0.99 to 2.52 µM, the IC50 (SN12C) was 13 µM and the CC50 (SN12C; read-out: LC50) was > 100 µM. The IC50 (OVCAR-4; OVCAR-4) was > 100 µM, the CC50 (OVCAR-4; OVCAR-4, read-out: LC50) was > 100 µM and the IC50 (HCT-15; HCT-15) was 3.98 µM. For the same molecule, the CC50 (HCT-15; HCT-15, read-out: LC50) was > 100 µM, the GI% (HS 578T; HS 578T, single dose 10 μM) was 21.70% and the IC50 (HS 578T; Homo sapiens, Hs-578T) was > 100 µM. For the same molecule, the CC50 (HS 578T; Homo sapiens, Hs-578T, read-out: LC50) was > 100 µM.
